In paper PMC12027278, “Study of Lysozyme Activity in Bird Egg Whites by Fluorescence Polarization Assay Using Chitooligosaccharide Tracer” (Foods, 2025):

How the values were obtained:
[1] = target: T1, hen egg white lysozyme (HEWL); hen egg lysozyme (Sigma) (Gallus gallus, UniProt P00698); test: fluorescence polarization, egg white; assay type: biochemical; settings: 25 mM phosphate, 0.15 M NaCl, pH 7.4, 25 °C; tracer 3 nM; diluted egg white; labelled compound
T1 construct: gene LYZ; native mature enzyme, 129 residues, commercial (Sigma) for tracer 2; endogenous in diluted egg white for tracer 1

[2] = target: T1, hen egg white lysozyme (HEWL); hen egg lysozyme (Sigma); test: fluorescence polarization; assay type: biochemical; settings: 25 mM phosphate, 0.15 M NaCl, pH 7.4, 25 °C; tracer 3 nM, HEWL 100 µg/mL, added after pre-incubation with non-reactive egg whites; labelled compound

T1 sequence (P00698 19-147): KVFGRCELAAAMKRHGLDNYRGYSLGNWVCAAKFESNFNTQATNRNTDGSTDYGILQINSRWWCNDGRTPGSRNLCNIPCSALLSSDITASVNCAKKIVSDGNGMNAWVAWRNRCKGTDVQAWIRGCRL

Compound	fluorescence polarization, egg white [1]	fluorescence polarization [2]
CC(=O)N[C@H]1[C@H](OCCNC(=S)Nc2ccc3c(c2)C(=O)OC32c3ccc(O)cc3Oc3cc(O)ccc32)O[C@H](CO)[C@@H](O[C@@H]2O[C@H](CO)[C@@H](O[C@@H]3O[C@H](CO)[C@@H](O)[C@H](O)[C@H]3NC(C)=O)[C@H](O)[C@H]2NC(C)=O)[C@@H]1O [compound 1, tracer 1]	a rapid increase in the FP signal was observed, followed by a stable plateau (Figure 6b)	–
CC(=O)N[C@H]1[C@H](OCCNC(=S)Nc2ccc3c(c2)C(=O)OC32c3ccc(O)cc3Oc3cc(O)ccc32)O[C@H](CO)[C@@H](O[C@@H]2O[C@H](CO)[C@@H](O[C@@H]3O[C@H](CO)[C@@H](O[C@@H]4O[C@H](CO)[C@@H](O[C@@H]5O[C@H](CO)[C@@H](O)[C@H](O)[C@H]5NC(C)=O)[C@H](O)[C@H]4NC(C)=O)[C@H](O)[C@H]3NC(C)=O)[C@H](O)[C@H]2NC(C)=O)[C@@H]1O [compound 2, tracer 2]	–	A sharp increase in the FP signal followed by a decrease over time was observed
